The record followed here is PubChem BioAssay AID1361 (SRMLSC, 2008).

Activity calls are given as the source filed them. No rule for the calls is given here.

This assay is described as follows: blockers of mitochondrial fusion, WT vs mutant – cell-based, chemical genetic, wild-type and mutant, confirmation (AID 1361). The settings on record: Cell-based mitochondrial fusion phenotype, imaging.
[1] abbreviates: mutant cells, measured here: mutant cell line IC50.

For the compound `CC1(C)CC(C(CCN(Cc2ccccc2)C(=O)c2ccco2)c2ccc(F)cc2)CCO1` (centres undefined), the IC50 is 16.8 µM (WT cells) and greater than 25 µM under setting [1].
`Cc1cc2c3c(c1)C1(SCC(=O)N1c1ccc(F)cc1)C(=O)N3C(C)(C)CC2C` (centres undefined): the IC50 reads like this: (WT cells) > 25 µM (inactive); under setting [1], greater than 25 µM.
On to `CC1CCN(c2nc(-c3cccnc3)nc3scc(-c4ccccc4)c23)CC1`, for which the IC50 is 13.1 µM (WT cells) and greater than 25 µM under setting [1].
In the case of `Cc1ccccc1NS(=O)(=O)c1cc(C(=O)N2CCc3ccccc3C2)ccc1C`, the IC50 is > 25 µM (inactive) (WT cells) and greater than 25 µM under setting [1].
Taken in the same sequence, the figures for `Cc1cccc(NC(=S)N/N=C/c2ccc3c(c2)OCO3)c1` were > 25 µM (inactive) and greater than 25 µM.
Taken in the same sequence, the figures for `COc1ccccc1NC1=C(Cl)C(=O)N(C2CCCCC2)C1=O` were 23.8 µM and greater than 25 µM.
In the case of `CC(C)Oc1ccc(C(=O)NC2(C(F)(F)F)NC(=O)N(CCCc3ccccc3)C2=O)cc1` (centres undefined), the IC50 runs as follows: (WT cells) 20.2 µM; under setting [1], greater than 25 µM.
On the same counts, the results for `Cc1oc(-c2ccccc2F)nc1CN1CCC(C(=O)NCCC2=CCCCC2)CC1` are > 25 µM (inactive) and greater than 25 µM.
Taken in the same sequence, the figures for `O=C(CNC(=S)N(Cc1ccccc1)Cc1ccccc1F)NCc1ccccc1` were 17.7 µM and greater than 25 µM.
On to `OCCN(CCO)CC(O)COc1ccc(C23CC4CC(CC(C4)C2)C3)cc1` (centres undefined), for which the IC50 reads like this: (WT cells) > 25 µM (inactive); under setting [1], greater than 25 µM.
For `O=C(Nc1ccccn1)c1ccco1`, the IC50 (WT cells) was > 25 µM (inactive) and the half-inhibitory concentration (IC50) under setting [1] was greater than 25 µM.
In the case of `O=C(COc1ccccc1[N+](=O)[O-])N/N=C/C=C/c1ccco1`, the IC50 by setting is: (WT cells) > 25 µM (inactive); under setting [1], greater than 25 µM.
Taken in the same sequence, the figures for `Cc1cccc(N2CCN(C(c3ccccc3)c3nnnn3C(C)(C)C)CC2)c1C` (centres undefined) were 9.14 µM and greater than 25 µM.
In the case of `CCCCCCP(=O)(O)c1ccccc1`, the IC50 was > 25 µM (inactive) (WT cells) and greater than 25 µM under setting [1].
Taken in the same sequence, the figures for `Cn1cc(C(=O)c2ccc(Cl)cc2Cl)cc1C(=O)O` were > 25 µM (inactive) and greater than 25 µM.
Taken in the same sequence, the figures for `CC(C)CCN(C(=S)Nc1cccc(F)c1)C(C)c1cccs1` (centres undefined) were 19.4 µM and greater than 25 µM.
Consider `COc1cccc(CNC(=O)CNC(=S)N(Cc2ccccc2)Cc2ccccc2F)c1`, for which the IC50 (WT cells) was 23.1 µM and the half-inhibitory concentration (IC50) under setting [1] is greater than 25 µM.
On to `C/C1=C\[C@@H](C)C/C=C/[C@H]2[C@@H]3O[C@]3(C)[C@@H](C)[C@H]3[C@H](Cc4c[nH]c5ccccc45)NC(=O)[C@]32C(=O)/C=C/C(=O)[C@@H]1O`, for which the IC50 by setting is: (WT cells) 19 µM; under setting [1], greater than 25 µM.
Taken in the same sequence, the figures for `CCOC(=O)c1c(NC(=O)OC)sc(C(=O)N(C)C)c1C` were > 25 µM (inactive) and greater than 25 µM.
Taken in the same sequence, the figures for `COc1ccc(-c2noc(-c3ccccc3-c3ccccc3)n2)cc1OC` were > 25 µM (inactive) and greater than 25 µM.
`Cc1nc2ccccc2c2oc(C(=O)Nc3ccc(C(C)C)cc3)cc12`: the IC50 is > 25 µM (inactive) (WT cells) and greater than 25 µM under setting [1].
`Cc1cc(-c2sccc2C)nc(-n2cccc2)n1`: the IC50 was > 25 µM (inactive) (WT cells) and greater than 25 µM under setting [1].
For the compound `CC(C)C(=O)N(c1cc2sc(=O)oc2c2ccccc12)S(=O)(=O)c1cccs1`, the IC50 reads like this: (WT cells) 7.48 µM; under setting [1], 20.7 µM.
On to `COc1ccc(NC(=O)Nc2cccc([N+](=O)[O-])c2)cc1Cl`, for which the IC50 reads like this: (WT cells) > 25 µM (inactive); under setting [1], greater than 25 µM.
As to `C/C(N)=C(/C#N)C(=O)COC(=O)c1cc(S(=O)(=O)N2CCCCC2)ccc1C`, the IC50 (WT cells) was > 25 µM (inactive) and the IC50 under setting [1] is greater than 25 µM.
On the same counts, the results for `CCC(=O)Nc1ccc(N2CCN(CC)CC2)c(Cl)c1` are > 25 µM (inactive) and greater than 25 µM.
With `N#CC1=C(N)SC(N)=C(C#N)C1c1c(Cl)cccc1Cl`, the IC50 is > 25 µM (inactive) (WT cells) and greater than 25 µM under setting [1].
Taken in the same sequence, the figures for `COc1cccc(NC(=S)N(CCc2c(C)[nH]c3ccccc23)Cc2ccco2)c1` were 15.6 µM (inactive) and greater than 12.5 µM.
Taken in the same sequence, the figures for `COC(=O)CNC(=O)CNC(=O)c1nn(-c2ccc(OC)c(Cl)c2)c(=O)c2ccccc12` were > 25 µM (inactive) and greater than 25 µM.
Taken in the same sequence, the figures for `c1n[nH]c(NCc2ccc3c(c2)OCO3)n1` were > 25 µM (inactive) and greater than 25 µM.
On to `CCc1cccc(C)c1NC(=S)NCCc1c(C)[nH]c2ccc(C)cc12`, for which the IC50 by setting is: (WT cells) > 25 µM (inactive); under setting [1], greater than 25 µM.
Taken in the same sequence, the figures for `CCCCSc1nnc(-c2ccccc2)c2ccccc12` were 24.9 µM (inactive) and greater than 25 µM.
As for `COc1ccc(-c2noc(CSc3nnc(Cc4ccccc4)n3-c3ccc(Cl)cc3)n2)cc1`, the IC50 reads like this: (WT cells) 16.1 µM; under setting [1], greater than 25 µM.
On the same counts, the results for `Cc1cc(=O)oc(C)c1C(=O)Nc1ccc2nsnc2c1` are > 25 µM (inactive) and greater than 25 µM.
Taken in the same sequence, the figures for `Cc1cccc(-n2ncc3c(N4CC(C)CC(C)C4)ncnc32)c1` (centres undefined) were 14.6 µM and 20 µM.
For the compound `Cc1onc(-c2ccccc2Cl)c1C(=O)Nc1nnc(-c2ccc(Br)cc2)s1`, the IC50 was 8.39 µM (WT cells) and greater than 25 µM under setting [1].
Take `O=C(CNC(=S)N(Cc1ccccc1)Cc1ccccc1F)NCCc1ccccc1`: the IC50 (WT cells) is 20.1 µM and the IC50 under setting [1] is greater than 25 µM.
Regarding `CCOC1(OCC)C(c2ccc(Cl)cc2)C(C#N)(C#N)C1(OCC)OCC` (centres undefined), the 50% inhibitory concentration (IC50) is, setting by setting: (WT cells) 11.5 µM; under setting [1], greater than 25 µM.
Taken in the same sequence, the figures for `CCOC(=O)CC(=O)CSc1nc(C)nc2c1oc1ccccc12` were > 25 µM (inactive) and greater than 25 µM.
For `CCOC(=O)CSc1n[nH]c(-c2cccnc2)n1`, the IC50 runs as follows: (WT cells) > 25 µM (inactive); under setting [1], greater than 25 µM.
Take `NC(=S)n1[nH]c(-c2ccc([N+](=O)[O-])cc2)c(N=Nc2ccc(Cl)cc2)c1=O`: the IC50 by setting is: (WT cells) 8.34 µM; under setting [1], greater than 25 µM.
On the same counts, the results for `CCC1(C)Cc2c(sc3[nH]c(=S)n(Cc4ccccc4)c(=O)c23)CO1` (centres undefined) are 21.2 µM and greater than 25 µM.
Regarding `O=C1CC(C(=O)NCc2ccccc2)C2(CCCC2)O1` (centres undefined), the IC50 was > 25 µM (inactive) (WT cells) and greater than 25 µM under setting [1].
Taken in the same sequence, the figures for `O=C(COC(=O)c1ccccc1C(=O)c1ccc(Cl)c([N+](=O)[O-])c1)NC1CCCCCC1` were > 25 µM (inactive) and greater than 25 µM.
On the same counts, the results for `COc1ccc(CCn2nnnc2C(CC(C)C)N2CCN(c3ncccn3)CC2)cc1OC` (centres undefined) are > 25 µM (inactive) and greater than 25 µM.
For the compound `CCOc1ccc(Br)cc1C1C(C(=O)OC)=C(N)Oc2cc(N(C)C)ccc21` (centres undefined), the IC50 (WT cells) is 11.7 µM and the IC50 under setting [1] was greater than 25 µM.
On the same counts, the results for `CC/C(=C\C1CCCCC1)C(NP(=O)(c1ccccc1)c1ccccc1)c1ccccc1` (centres undefined) are 7.6 µM and greater than 25 µM.
`COc1ccc2nc(NC(=O)CN(c3ccc(C)cc3)S(=O)(=O)c3c(C)nn(C)c3C)sc2c1`: the IC50 by setting is: (WT cells) 16 µM; under setting [1], greater than 25 µM.
Take `CCCCN1C(=O)NC(=O)C2(Cc3c(nc4c(C)cccn4c3=O)N3CCc4ccccc4C32)C1=O` (centres undefined): the concentration for half-maximal inhibition (IC50) (WT cells) is 11.9 µM and the IC50 under setting [1] was greater than 25 µM.
With `COc1cccc(-c2cnc(OC(C)(C)C)nc2OC(C)(C)C)c1`, the IC50 is, setting by setting: (WT cells) 24 µM; under setting [1], greater than 25 µM.
Turning to `O=S(=O)(NCCOCCNS(=O)(=O)c1ccccc1)c1ccccc1`, the IC50 (WT cells) was > 25 µM (inactive) and the half-inhibitory concentration (IC50) under setting [1] is greater than 25 µM.
On the same counts, the results for `CCN1CCN(CCNC(=O)c2ccc(/C=C3/Sc4ccccc4N(Cc4ccccc4C)C3=O)cc2)CC1` are 15.5 µM and greater than 25 µM.
Taken in the same sequence, the figures for `C=CCC(C(=O)OC)(C(=O)OC)c1ccc([N+](=O)[O-])cn1` were > 25 µM (inactive) and greater than 25 µM.
With `COCCn1c(SCc2nnc(-c3ccccc3)o2)nc2sc3c(c2c1=O)CCC3`, the IC50 runs as follows: (WT cells) 8.38 µM; under setting [1], 17.6 µM.
As for `CCC1Oc2ccc(C)cc2N(CC(=O)NCCCN2CCCCC2CC)C1=O` (centres undefined), the IC50 reads like this: (WT cells) > 25 µM (inactive); under setting [1], greater than 25 µM.
Taken in the same sequence, the figures for `CC(C)C12CN3CCN(CC(C3)C1O)C2` (centres undefined) were > 25 µM (inactive) and greater than 25 µM.
Taken in the same sequence, the figures for `Cc1nn(-c2ccccc2)c(C)c1NC(=O)c1ccc(S(=O)(=O)N2CCCC2)cc1` were > 25 µM (inactive) and greater than 25 µM.
For `CCCCc1ccc(NC(=S)Nc2ccc(Cl)c(S(=O)(=O)N(C)C)c2)cc1`, the IC50 was 9.48 µM (WT cells) and greater than 25 µM under setting [1].
Taken in the same sequence, the figures for `O=C(NC(=S)NCCC1=CCCCC1)c1ccccc1Br` were 20.9 µM and greater than 25 µM.
For `CCOc1cccc(Oc2ncccc2C(=O)/C(C#N)=C/N(C)C)c1`, the IC50 reads like this: (WT cells) > 25 µM (inactive); under setting [1], greater than 25 µM.
Taken in the same sequence, the figures for `CN(C(=S)Nc1ccc(SC(F)F)cc1)c1ccc(O)cc1` were > 25 µM (inactive) and greater than 25 µM.
On the same counts, the results for `O=C(NC(=S)Nc1ccccc1N1CCCCC1)c1ccco1` are > 25 µM (inactive) and 23 µM.
On the same counts, the results for `CC(C)(C)c1cc(/C=N/O)cc(C(C)(C)C)c1O` are > 25 µM (inactive) and greater than 25 µM.
For the compound `N#Cc1nc(-c2ccco2)oc1NCc1ccc(F)cc1`, the IC50 runs as follows: (WT cells) > 25 µM (inactive); under setting [1], greater than 25 µM.
Taken in the same sequence, the figures for `O=C1N(O)C2(C=CCCC2)/C(=N\O)C12CCCCC2` (centres undefined) were > 25 µM (inactive) and greater than 25 µM.
Turning to `CCOc1ccccc1N1CCN(C(=O)Nc2ccc(Cl)c(Cl)c2)CC1`, the IC50 by setting is: (WT cells) 20.9 µM (inactive); under setting [1], greater than 12.5 µM.
Taken in the same sequence, the figures for `Cc1[nH]c2ccccc2c1/C=N/NC(=O)C1CC1(c1ccccc1)c1ccccc1` (centres undefined) were 7.93 µM and greater than 25 µM.
